Results reported in patent US20120178158A1, “ADULT ANIMALS GENERATED FROM INDUCED PLURIPOTENT CELLS” (The Scripps Research Institute, priority 2009, published 2012).

Key:
[1] = system: mouse embryonic fibroblasts (MEFs); test: Dox-inducible lentiviral reprogramming of fibroblasts to iPSC colonies; format: cell-based
Description: We reasoned that inappropriate expression of reprogramming genes during development could inhibit embryonic and postnatal development. Therefore, we designed a drug-inducible lentiviral reprogramming strategy to achieve tight control of transgene expression in iPSCs and their derivatives (FIG. 1b)^19. The four original reprogramming factors (Oct4, Sox2, Klf4 and cMyc) were placed under control of the tetO promoter, which is activated by the reverse tetracycline transactivator (rtTA) protein in the presence of the tetracycline analog doxycycline (dox). We used an enhanced version of the rtTA transcriptional activator protein (rtTAM2.2) that induces higher gene expression levels than the rtTAM2 protein^20. To promote complete reprogramming and facilitate isolation of fully reprogrammed iPSCs we exposed MEFs to the histone deacetylase inhibitor valproic acid (VPA), which has been reported to enhance reprogramming efficiency^21 and to select against incompletely reprogrammed cells by inhibiting cell division^22 (Supplementary methods).
Generation of iPSCs. Mouse embryonic fibroblasts (MEFs) were prepared from Pcdh21/Cre-Z/EG (iMZ lines) or Nex/Cre-Z/EG (iNZ lines) E13.5 embryos. Generation of iMZ lines: After 24 hours in culture, individual wells of ˜300,000 MEFs were transduced with lentiviruses (day 1) and split 1:2 (day 2) and 1:3 (day 3) to generate 6 wells of transduced MEFs. On post-transduction day 4, dox (10 μg/ml) was added to four wells to induce expression of reprogramming genes; three of these wells were also treated with VPA (1.9 mM). The remaining two wells were treated with nothing, or VPA alone. To maintain conditions for optimal MEF growth and viability, on post-transduction day five, the three dox+VPA wells were expanded into a 15 cm^2 dish while the other three conditions were expanded to 10 cm^2 dishes. […] On day 14, additional colonies were isolated, of which 12 were expanded (lines iMZ-9-21) and characterized further. […] On post-transduction day 17, all putative iPSC lines were transferred to fresh feeders in single 96 well plates. Cell lines were expanded into two wells on post-transduction day 21. Cells were maintained in dox+VPA until post-transduction day 23, when both were removed. All cell lines appeared to maintain ESC like morphology and proliferation rates. Lines were expanded to 24 well plates on day 24. Subsequently, cell lines were banked and maintained as described in the cell culture conditions section. Generation of iNZ lines: Initial reprogramming conditions were identical to those of iMZ lines except that cells were split 1:2 on post-transduction day 3 to generate four wells (dox+VPA, dox only, VPA only and no treatment). Cells were split once after dox and VPA addition. […]

[2] = system: Gtl2/Dlk1 (Gtl2 locus); test: Methylation / activity of the Gtl2 locus in iPS cell lines derived with or without VPA; format: cell-based, mouse; settings: VPA+ (n = 15 cell lines)
Description: In some embodiments, the induction conditions include contacting the cells with a histone deacetylase inhibitor or other compound that alters epigenetic marks. […] See, Stadfeld, et al., Nature. 465(7295):175-81 (2010); Liu et al., J Biol Chem. 285(25):19483-90 (2010). Normal ESCs express genes from one of the two parental chromosomes. Previous non-fully pluripotent IPSC lines have reduced expression from both parental Gtl loci by allowing extra epigenetic marking. These iPSC lines have methylated both Gtl2 loci and also may have distinct histone acetylation and methylation that turns off gene expression which correlates with or causes failure to generate live animals. The methods described herein produce a high frequency of cell lines that generate mice and these lines have an active and properly imprinted (i.e., hemi-methylated and histone acetylated) Gtl2 locus. When the epigenetic remodeling compound, VPA is removed from the method but no other variables are changed, the Gtl2 locus is no longer active or properly imprinted in the majority of cell lines. Therefore inclusion of VPA, or other histone deacetylase inhibitors or epigenetic remodeling compounds, regulates imprinting of the Gtl2 locus and other genomic regions that control pluripotency.

SMILES	colony emergence in the absence of dox ([1]; iMZ MEFs, VPA alone 1.9 mM, no dox)	% iPS Cell Lines with Active Gtl2 Locus: % Locus Unmethylated High (>40%) ([2]; share of lines in class High (>40%))	% iPS Cell Lines with Active Gtl2 Locus: % Locus Unmethylated Low (1-10%) ([2]; share of lines in class Low (1-10%))	% iPS Cell Lines with Active Gtl2 Locus: % Locus Unmethylated Medium (10-40%) ([2]; share of lines in class Medium (10-40%))	% iPS Cell Lines with Active Gtl2 Locus: % Locus Unmethylated Negative (not detectable) ([2]; share of lines in class Negative (not detectable))	post-transduction day on which colonies were observed ([1]; iMZ lines, Pcdh21/Cre-Z/EG MEFs, dox 10 μg/ml, VPA 1.9 mM from day 4)	post-transduction day on which colonies were observed ([1]; iNZ lines, Nex/Cre-Z/EG MEFs)	colonies observed on day 14 ([1]; iNZ lines, Nex/Cre-Z/EG MEFs, post-transduction day 14)
CCCC(CCC)C(=O)O [VPA, valproic acid]	No colonies emerged	27%	40%	33%	0%	–	–	–
C[C@H]1c2cccc(O)c2C(=O)C2=C(O)[C@]3(O)C(=O)C(C(N)=O)=C(O)[C@@H](N(C)C)[C@@H]3[C@@H](O)[C@@H]21 [dox, doxycycline]	–	–	–	–	–	11	11	19
